Laboratory results: article PMC4919375, “Improved in vivo antitumor effect of a daunorubicin - GnRH-III bioconjugate modified by apoptosis inducing agent butyric acid on colorectal carcinoma bearing mice” (Investigational New Drugs, 2016)

Experiments:
[1] = tested on: HT-29 orthotopic primary human colon carcinoma; assay: Proliferative index in orthotopic HT-29 tumor tissues (BrdU); type: in vivo, mouse; conditions: orthotopic HT-29 in NSG mice, BrdU positive cells; relative to control; mean
Method: (§1) Before ending the experiment (30 min prior to sacrificing the mice), the tumor bearing animals were injected i.p. with 5-bromo-2 V-deoxyuridine (BrdU, 200 mg/kg; Sigma-Aldrich Kft, Budapest, Hungary). After 6 h, 5–7 μm thick tissue sections were excised from the newly frozen tumors and used for the detection of BrdU positive cells using an anti-BrdU monoclonal antibody (Becton Dickinson Hungary Kft., Budapest, Hungary), according to the manufacturer’s protocol. Positive cells were visualized with TRITC-conjugated anti-mouse IgG (1:100, Sigma). Endothelial cells were distinguished from tumor cells by treating the samples with rat anti-mouse CD31 antibody and labelled with biotinylated anti-rat IgG and streptavidin-FITC (Vector Laboratories, Burlingame, CA). The nuclei were stained with the Hoechst 33,342 dye (Molecular Probes, Eugene, OR). The number of labelled HT-29 tumor cells and the quantity of CD31-positive samples were determined in two different tumors by microscopic analysis of 6 independent regions. The vascularization extent of primary tumors was determined by microscopic analysis of two different living tumors, where four independent areas of living cells were counted and the percentage of separated endothelial cells covering a 10× magnification field of vision was calculated.

[2] = tested on: heart; assay: Liver- and cardiotoxicity, histological examination and side effects; type: in vivo, mouse; conditions: at the applied doses; liver weight, hematoxylin and eosin histology of heart, light microscopy
Excerpt: The removed and fixed tissue samples were dehydrated in a graded series of ethanol, infiltrated with xylene and embedded into paraffin. Histological sections were stained with Harris hematoxylin and eosin (10:1, v/v, 1 % solutions) in acidified 70 % ethanol and mounted. The histological samples were examined under a light microscope (Olympus CH30, Olympus Optical, Japan).

[3] = tested on: HT-29 orthotopic primary human colon carcinoma; assay: Macroscopic metastases on different organs; type: in vivo, mouse; conditions: orthotopic HT-29 in NSG mice, day 50; 7 animals in each group
Method: (§2) Based on the results of the chronic toxicity study, we used only 1 mg (1.773 μmol)/kg free Dau, weekly, in the Dau treated group. Thirteen treatments were applied from the day 5 after tumor transplantation until the day 50 in the groups treated with the bioconjugates (every Monday and Thursday). The treatments were performed by i.v. (intravenous) or i.p. administration; the compounds were dissolved in distilled water (0.1 mL/10 g body weight).
(§3) The bioconjugates were administered at different doses during the treatment period. In the first five treatments, they were i.v. administered, at a dose of 28.435 μmol/kg body weight (15 mg Dau content in the bioconjugate/kg). From the 6th to the 13th treatment, they were i.p. administered at a dose of 14.217 μmol/kg body weight (7.5 mg Dau content in the bioconjugate/kg). The first five doses represented the initial round of treatments, which was followed by the maintenance therapy. In the maintenance treatments, 5 % glucose solution instead of distilled water was used, in order to minimize the harmful effects of tfa salts that were present in the lyophilized bioconjugates.
(§4) The mice from all groups were sacrificed by deadly overslept cocktail (0.3 mL/mouse concentrated nembutal (pentobarbitone) solution), on day 50 after tumor transplantation.

[4] = tested on: NSG healthy mice; assay: Chronic toxicity of daunorubicin on NSG healthy mice; type: in vivo, mouse
Method: NSG adult male mice, weighing 26–34 g, were used. Daunorubicin was dissolved in distilled water at a concentration that allowed the dose to be given in a volume of 0.1 mL/10 g body weight. In this experiment, each group consisted of 3 mice, which were treated by intraperitoneal (i.p.) administration on days 1, 4, 8, 12 and 16. The toxicity was assessed on the basis of lifespan and body weight and the survival time was followed for 20 days.

[5] = tested on: HT-29 orthotopic primary human colon carcinoma; assay: Vascularization in orthotopic HT-29 tumor tissues (CD31); type: in vivo, mouse; conditions: orthotopic HT-29 in NSG mice, CD31-positive endothelial cells; control 100 %; mean
Method: as §1

[6] = tested on: HT-29 orthotopic primary human colon carcinoma; assay: Tumor growth inhibition, orthotopic HT-29 human colon carcinoma in NSG mice; type: in vivo, mouse; conditions: orthotopic HT-29 in NSG mice, Dau 1 mg/kg i.v. weekly x7, 7 mice/group; for Tumor growth inhibition compared to the control group: tumor weight on day 50, bioconjugates 15 mg Dau content/kg i.v. x5 then 7.5 mg Dau content/kg i.p. x8, twice a week; for Tumor weight on day 50 after tumor transplantation: relative to control, bioconjugates 15 mg Dau content/kg i.v. x5 then 7.5 mg/kg i.p. x8, mean
Excerpt: Female NSG mice, weighing 24–28 g, were used in this study. The xenografts were established by subcutaneous injection of ca. 10^6 HT-29 (GnRH receptor positive) human colon carcinoma cells, which were from ATCC and cultured according to their standards. The mice with palpable tumors were killed by cervical-dislocation, disinfected with iodine, and the subcutaneous tumor was dissected out aseptically. Tumor pieces of 2–3 mm^3 were transplanted under aseptic conditions, orthotopically, into narcotized NSG mice.
For direct implantation, mice were anesthetized (narcotic mixture: tiletamine, zolazepam, xylazine, butorphanol) and the abdomen was sterilized with iodine and alcohol swabs. A small midline incision (0.5 cm) was made and the colorectal part of the intestine was exteriorized. Serosa of the site where the tumor pieces were to be implanted was removed. A piece of 2 mm^3 HT-29 human colon tumor was implanted on the top of the animal intestine; an 8/0 surgical (polypropylene) suture was used to suture it on the wall of the intestine. The intestine was returned to the abdominal cavity and the abdominal wall was closed with 4/0 surgical (polyglycolic acid) sutures. The wound was sterilized with iodine and alcohol swab again and the animals were kept in a sterile environment. For pain release and rehydration, mice were treated s.c. with 100 mg/kg algopyrine in Ringer solution containing 5 % glucose. On the next day, no signs of pain and stress of mice were observed.
as §2
In this experiment, 7 mice/group were used for the treatment with the bioconjugates (GnRH-III[^4Lys(Ac),^8Lys(Dau = Aoa)] and GnRH-III[^4Lys(Bu),^8Lys(Dau = Aoa)]) as well as in the control group.
as §3, with “In the maintenance treatments, 5 % glucose solution instead of distilled water was used, in order to minimize the harmful effects of tfa salts that were present in the lyophilized bioconjugates.” left out
After that, the tumors were removed and the tumor weight was determined in all cases. […]

[7] = tested on: liver; assay: Macroscopic liver toxicity (liver weight); type: in vivo, mouse; conditions: Dau 1 mg/kg i.v. weekly x7; for Liver weight on day 50 after tumor transplantation: relative to control, HT-29 bearing NSG mice, bioconjugates 15 then 7.5 mg Dau content/kg twice a week, mean
Method: as §2, §3, §4

[8] = tested on: GnRH receptor; conditions: butyrated compared with acetylated bioconjugate; cited from earlier work
Excerpt: (§5) In our research, lamprey GnRH-III (Glp-His-Trp-Ser-His-Asp-Trp-Lys-Pro-Gly-NH2, where Glp is pyroglutamic acid) has been employed as a key molecule for drug targeting. […] Thus, hormonal side effects in case of targeted tumor therapy using GnRH-III as a homing device are expected to be insignificant, this feature being important in the treatment of hormone independent tumors like colorectal cancer. Considering that lysine in position 8 of GnRH-III can be us ...

[9] = tested on: HT-29 human colon cancer cells; conditions: cited from earlier work
Excerpt: as §5

[10] = butyrated version compared with acetylated; previous in vitro studies; cited from earlier work
Excerpt: In our research, GnRH-III peptide was mainly employed as a targeting moiety, due to its low endocrine effect in mammals and significant antiproliferative effect on different types of cancer cells. […] However, the efficacy of the bioconjugates was highly dependent on the tumor type and whether this was subcutaneously or orthotopically developed in mice. Orthotopically developed tumors represent the ...

Row | Compound | Proliferation index (%) [1] [%] | Metastasis on diaphragm, animals affected/animals in group [3] | Metastasis on diaphragm, percent of animals [3] [%] | Metastasis on liver, animals affected/animals in group [3] | Metastasis on liver, percent of animals [3] [%] | Metastasis on lung, animals affected/animals in group [3] | Metastasis on lung, percent of animals [3] [%] | Metastasis on lymph node, animals affected/animals in group [3] | Metastasis on pancreas, animals affected/animals in group [3] | Metastasis on pancreas, percent of animals [3] [%] | Metastasis on spleen, animals affected/animals in group [3] | Metastasis on spleen, percent of animals [3] [%] | Tumor growth inhibition compared to the control group [6] | Tumor weight on day 50 after tumor transplantation [6] [%] | Liver weight on day 50 after tumor transplantation [7] [%] | also measured
1 | COc1cccc2c1C(=O)c1c(O)c3c(c(O)c1C2=O)C[C@@](O)(C(C)=O)C[C@@H]3O[C@H]1C[C@H](N)[C@H](O)[C@H](C)O1 [Daunorubicin] | 98.6 | 3/7 | 42.9 | 7/7 | 100 | 7/7 | 100 | 4/7 | 0/7 | 0 | 0/7 | 0 | about 30% | 70.3 | 89.1 | Liver- or cardiotoxicity [2]: neither the bioconjugates nor the free daunorubicin showed any liver- or cardiotoxicity; Day on which the first animal died ([4]; 1 mg/kg i.p. on days 1, 4, 8, 12 and 16, NSG healthy male mice, 3 mice/group, experiment stopped on day 20): 20 days; Mice died ([4]; 2 mg/kg i.p. on days 1, 4, 8, 12 and 16, died on day 13 after the fourth treatment, NSG healthy male mice, 3 mice/group): 2 of 3; Body weight change ([4]; 1 or 2 mg/kg i.p. on days 1, 4, 8, 12 and 16, both doses, NSG healthy male mice): significant loss of weight; Body weight of the animals at the end ([4]; decreased from ~30 g during 20 days, i.p. on days 1, 4, 8, 12 and 16, NSG healthy male mice): ~ 20 g; Maximum tolerated dose ([4]; immunodeficient tumor bearing mice): 1–2 mg/kg/week; Vascularization (number of blood vessels), to the control [5]: 112%; Decrease of average liver weight ([7]; vs control, day 50, not significant): about 11%
2 | GnRH-III[^4Lys(Bu),^8Lys(Dau = Aoa)] | 84.5 | 3/7 | 42.9 | 7/7 | 100 | 7/7 | 100 | 3/7 | 0/7 | 0 | 1/7 | 14.3 | ~ 40% | 60.6 | 105.0 | Binding to the GnRH receptor (affinity) [8]: higher affinity; IC50 [9]: 2200 ± 600 nM; Metastasis on lymph node, percent of animals [3]: 42.9%; Cellular uptake [10]: higher receptor binding affinity and cellular uptake
